pIC50: −log10 of the molar value.
Molecular target: T1, human ENPP1 enzymatic domain (Homo sapiens, UniProt P22413)
T1 construct: recombinant protein containing the human ENPP1 enzymatic domain; purchased Viva Biotech
T1 sequence (P22413 191-591 limits assumed): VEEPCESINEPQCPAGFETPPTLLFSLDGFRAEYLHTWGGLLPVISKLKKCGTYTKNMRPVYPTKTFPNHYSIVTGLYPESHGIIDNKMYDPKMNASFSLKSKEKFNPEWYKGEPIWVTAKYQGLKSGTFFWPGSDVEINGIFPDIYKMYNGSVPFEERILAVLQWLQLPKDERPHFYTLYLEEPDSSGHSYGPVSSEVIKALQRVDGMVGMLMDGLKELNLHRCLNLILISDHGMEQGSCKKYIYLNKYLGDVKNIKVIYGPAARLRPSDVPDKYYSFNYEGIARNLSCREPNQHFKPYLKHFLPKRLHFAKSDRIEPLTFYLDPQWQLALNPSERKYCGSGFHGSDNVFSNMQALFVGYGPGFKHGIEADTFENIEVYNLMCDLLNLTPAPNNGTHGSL
Test: ENPP1 Enzymatic Inhibition Assay (2′3′-cGAMP substrate, AMP-Glo luminescence)
Assay type: biochemical
Settings: 1 nM ENPP1, 20 uM 2′3′-cGAMP, 30 minutes at 37° C.
Description: The inhibition of ENPP1's phosphodiesterase activity were tested in a purified enzymatic assay using 2′3′-cyclic GAMP as a substrate which allowed for the release of cleaved AMP to be monitored using a luminescent assay.
Putative inhibitors were diluted in assay buffer (50 mM Tris pH 8.0, 250 mM NaCl, 0.5 mM CaCl2), 1 uM ZnCl2, 1% DMSO) and pre-incubated for 15 minutes at 37° C. with recombinant protein containing the human ENPP1 enzymatic domain (Viva Biotech). The enzymatic reaction was initiated upon addition of the 2′3′-cGAMP substrate. The final reaction concentrations were 1 nM ENPP1 and 20 uM 2′3′-cGAMP substrate in a 25 uL volume. Inhibitor concentrations ranged from 10 uM to 0.056 nM. The reaction was incubated for 30 minutes at 37° C.
After reacting for 30 minutes, the amount of AMP generated from the cleavage of 2′3′-cGAMP was determined using the Promega AMP-Glo method according to the manufacturer's protocol. First, AMP-Glo reagent 1 was added and incubated with the reaction mix for 1 hour at room temperature. Second, AMP Detection solution was added and the mixture was incubated for an additional hour. The luminescence of the mixture was read on a Perkin Elmer Ensight plate reader.
The maximum and minimum levels of ENPP1 activity were established using no inhibitor and no enzyme controls, respectively. The activity observed using ENPP1 inhibitors was quantified as the percent of activity relative to these controls. IC50 values were calculated using CDD Vault by fitting a sigmoidal variable slope nonlinear regression model to the data.

Row | pIC50 | SMILES
1 | > 8.00 | COc1ccc2c(Nc3ccc([S@@](=N)(=O)NCC4CC4)cc3)ccnc2c1 [Compound 20, (S)-N-(cyclopropylmethyl)-4-((7-methoxyquinolin-4-yl)amino)benzenesulfonimidamide]
2 | > 8.00 | COc1ccc2c(Nc3ccc([S@](=N)(=O)NC[C@H](O)C(C)(C)C)cc3)ccnc2c1 [Compound 59, (R)-N-((R)-2-hydroxy-3,3-dimethylbutyl)-4-((7-methoxyquinolin-4-yl)amino)benzenesulfonimidamide]
3 | > 8.00 | COc1ccc2c(Nc3ccc([S@@](=N)(=O)NC[C@H](O)C(C)(C)C)cc3)ccnc2c1 [Compound 60, (S)-N-((R)-2-hydroxy-3,3-dimethylbutyl)-4-((7-methoxyquinolin-4-yl)amino)benzenesulfonimidamide]
4 | 7.00 to 8.00 | COc1ccc2c(Oc3ccc([S@](=N)(=O)N[C@@H](C)CO)cc3)ccnc2c1 [Compound 5, (R)-N-((S)-1-hydroxypropan-2-yl)-4-((7-methoxyquinolin-4-yl)oxy)benzenesulfonimidamide]
5 | > 8.00 | COc1cc2nccc(Nc3ccc([S@@](=N)(=O)NC4CC4)cc3)c2cc1F [Compound 67, (S)-N-cyclopropyl-4-((6-fluoro-7-methoxyquinolin-4-yl)amino)benzenesulfonimidamide]
6 | 7.00 to 8.00 | COc1ccc2c(Oc3ccc([S@](=N)(=O)NCCO)cc3)ccnc2c1 [Compound 3, (R)-N-(2-hydroxyethyl)-4-((7-methoxyquinolin-4-yl)oxy)benzenesulfonimidamide]
7 | > 8.00 | COc1ccc2c(Nc3ccc([S@](=N)(=O)N[C@H](C)CO)cc3)ccnc2c1 [Compound 35, (R)-N-((R)-1-hydroxypropan-2-yl)-4-((7-methoxyquinolin-4-yl)amino)benzenesulfonimidamide]
8 | > 8.00 | COc1ccc2c(Nc3ccc([S@@](=N)(=O)NC[C@@H](C)O)cc3)ncnc2c1 [Compound 64, (S)-N-((R)-2-hydroxypropyl)-4-((7-methoxyquinazolin-4-yl)amino)benzenesulfonimidamide]
9 | > 8.00 | COc1ccc2c(Oc3ccc([S@@](=N)(=O)NC[C@H](C)O)cc3)ccnc2c1 [Compound 8, (S)-N-((S)-2-hydroxypropyl)-4-((7-methoxyquinolin-4-yl)oxy)benzenesulfonimidamide]
10 | > 8.00 | COc1cccc2c(Nc3ccc([S@@](=N)(=O)NCCO)cc3)ccnc12 [Compound 58, (S)-N-(2-hydroxyethyl)-4-((8-methoxyquinolin-4-yl)amino)benzenesulfonimidamide]
11 | 7.00 to 8.00 | COc1ccc2c(Nc3ccc([S@@](=N)(=O)N[C@@H](C)CO)cc3)ccnc2c1 [Compound 40, (S)-N-((S)-1-hydroxypropan-2-yl)-4-((7-methoxyquinolin-4-yl)amino)benzenesulfonimidamide]
12 | 7.00 to 8.00 | COc1ccc2c(Nc3ccc([S@](=N)(=O)NC[C@@H](C)O)cc3)ncnc2c1 [Compound 63, (R)-N-((R)-2-hydroxypropyl)-4-((7-methoxyquinazolin-4-yl)amino)benzenesulfonimidamide]
13 | > 8.00 | CN[S@@](=N)(=O)c1ccc(Nc2ccnc3cc(OC)ccc23)cc1 [Compound 17, (R)-4-((7-methoxyquinolin-4-yl)amino)-N-methylbenzenesulfonimidamide]
14 | > 8.00 | COc1ccc2c(Nc3ccc([S@](=N)(=O)NCCO)cc3)ccnc2c1 [Compound 53, (R)-N-(2-hydroxyethyl)-4-((7-methoxyquinolin-4-yl)amino)benzenesulfonimidamide]
15 | 7.00 to 8.00 | COc1ccc2c(Oc3ccc([S@](=N)(=O)NC[C@H](O)CO)cc3)ccnc2c1 [Compound 33, (R)-N-((S)-2,3-dihydroxypropyl)-4-((7-methoxyquinolin-4-yl)oxy)benzenesulfonimidamide]
16 | > 8.00 | COc1ccc2c(Nc3ccc([S@](=N)(=O)NC[C@@H](C)O)cc3)ccnc2c1 [Compound 55, (R)-N-((R)-2-hydroxypropyl)-4-((7-methoxyquinolin-4-yl)amino)benzenesulfonimidamide]
17 | 7.00 to 8.00 | COc1ccc2c(Oc3ccc([S@@](=N)(=O)NC[C@H](O)C(C)(C)C)cc3)ccnc2c1 [Compound 44, (S)-N-((R)-2-hydroxy-3,3-dimethylbutyl)-4-((7-methoxyquinolin-4-yl)oxy)benzenesulfonimidamide]
18 | > 8.00 | COc1ccc2c(Oc3ccc([S@@](=N)(=O)N[C@H](C)c4ccnn4C)cc3)ccnc2c1 [Compound 28, (S)-4-((7-methoxyquinolin-4-yl)oxy)-N-((R)-1-(1-methyl-1 H-pyrazol-5-yl)ethyl)benzenesulfonimidamide]

Second part, the compound before the results:

Row | SMILES | pIC50
19 | COc1ccc2c(Oc3ccc([S@@](=N)(=O)NC[C@H](O)CO)cc3)ccnc2c1 [Compound 34, (S)-N-((S)-2,3-dihydroxypropyl)-4-((7-methoxyquinolin-4-yl)oxy)benzenesulfonimidamide] | > 8.00
20 | COc1ccc2c(Nc3ccc([S@](=N)(=O)NC[C@H](C)O)cc3F)ccnc2c1 [Compound 45, (R)-3-fluoro-N-((S)-2-hydroxypropyl)-4-((7-methoxyquinolin-4-yl)amino)benzenesulfonimidamide] | 7.00 to 8.00
21 | CN[S@](=N)(=O)c1ccc(Nc2ncnc3cc(OC)ccc23)cc1 [Compound 16, (S)-4-((7-methoxyquinazolin-4-yl)amino)-N-methylbenzenesulfonimidamide] | > 8.00
22 | COc1ccc2c(Oc3ccc([S@@](=N)(=O)NC(C)c4ccn(C)n4)cc3)ccnc2c1 (stereo partly drawn) [Compound 30, (S)-4-((7-methoxyquinolin-4-yl)oxy)-N-(1-(1-methyl-1H-pyrazol-3-yl)ethyl)benzenesulfonimidamide] | > 8.00
23 | COc1ccc2c(Nc3ccc([S@@](=N)(=O)NCCCn4cnnc4)cc3)ccnc2c1 [Compound 50, (S)-N-(3-(4H-1,2,4-triazol-4-yl)propyl)-4-((7-methoxyquinolin-4-yl)amino)benzenesulfonimidamide] | > 8.00
24 | COc1cccc2c(Nc3ccc([S@](=N)(=O)NC[C@@H](C)O)cc3)ncnc12 [Compound 61, (R)-N-((R)-2-hydroxypropyl)-4-((8-methoxyquinazolin-4-yl)amino)benzenesulfonimidamide] | < 7.00
25 | COc1ccc2c(Oc3ccc([S@](=N)(=O)NCC4CC4)cc3)ccnc2c1 [Compound 13, (R)-N-(cyclopropylmethyl)-4-((7-methoxyquinolin-4-yl)oxy)benzenesulfonimidamide] | < 7.00
26 | COc1ccc2c(Nc3ccc([S@](=N)(=O)NCC4CC4)cc3)ccnc2c1 [Compound 19, (R)-N-(cyclopropylmethyl)-4-((7-methoxyquinolin-4-yl)amino)benzenesulfonimidamide] | > 8.00
27 | COc1ccc2c(Oc3ccc([S@](=N)(=O)NC[C@@H](C)O)cc3)ccnc2c1 [Compound 25, (R)-N-((R)-2-hydroxypropyl)-4-((7-methoxyquinolin-4-yl)oxy)benzenesulfonimidamide] | > 8.00
28 | COc1ccc2c(Oc3ccc([S@](=N)(=O)N[C@H](C)c4ccnn4C)cc3)ccnc2c1 [Compound 27, (R)-4-((7-methoxyquinolin-4-yl)oxy)-N-((R)-1-(1-methyl-1H-pyrazol-5-yl)ethyl)benzenesulfonimidamide] | 7.00 to 8.00
29 | CN[S@](=N)(=O)c1ccc(Nc2ccnc3cc(OC)ccc23)cc1 [Compound 18, (S)-4-((7-methoxyquinolin-4-yl)amino)-N-methylbenzenesulfonimidamide] | > 8.00
30 | COc1ccc2c(Oc3ccc([S@](=N)(=O)NC[C@@H](O)CO)cc3)ccnc2c1 [Compound 31, (R)-N-((R)-2,3-dihydroxypropyl)-4-((7-methoxyquinolin-4-yl)oxy)benzenesulfonimidamide] | 7.00 to 8.00
31 | COc1ccc2c(Nc3ccc([S@](=N)(=O)N[C@@H](C)c4ccnn4C)cc3)ccnc2c1 [Compound 41, (R)-4-((7-methoxyquinolin-4-yl)amino)-N-((S)-1-(1-methyl-1H-pyrazol-5-yl)ethyl)benzenesulfonimidamide] | 7.00 to 8.00
32 | COc1ccc2c(Oc3ccc([S@](=N)(=O)NC[C@H](C)O)cc3)ccnc2c1 [Compound 7, (R)-N-((S)-2-hydroxypropyl)-4-((7-methoxyquinolin-4-yl)oxy)benzenesulfonimidamide] | 7.00 to 8.00
33 | COc1ccc2c(Oc3ccc([S@](=N)(=O)NC[C@H](O)C(C)(C)C)cc3)ccnc2c1 [Compound 43, (R)-N-((R)-2-hydroxy-3,3-dimethylbutyl)-4-((7-methoxyquinolin-4-yl)oxy)benzenesulfonimidamide] | > 8.00

— patent publication US20240382474A1, “ENPP1 MODULATORS AND USES THEREOF” (Vir Biotechnology, Inc., priority 2021, published 2024)
